2 compounds from patent US20070060605A1, “Compositions and methods for inhibiting platelet activation and thrombosis” (priority 2001, published 2007) can be followed below.

The structures appear in SMILES notation. Like-named read-outs stand apart in the source and are kept apart here.

The subject of test [1] is PGE1-induced cAMP levels in platelets. The experiment in a line: Augmentation of PGE1-induced cAMP levels in platelets. It is filed as cell-based, human. The settings on record: no single concentration. On the procedure:
One frequent target of anti-platelet agents is phosphodiesterase III (PDE III). […] The assay is performed as described by Liao et al., 1998, Eur J Pharmacol 349,107-114, incorporated herein by reference. Briefly, aliquots of PRP are exposed to increasing concentrations of the agent for 20 minutes. The PRP is then challenged with 1 μM PGE1 for 2 min The reaction is stopped by adding 10 mM EDTA, followed immediately by boiling for 2 min. The mixture is cooled to 4° C. and the precipitated protein is pelleted. cAMP content in the supernatant is quantitated using an enzyme immunoassay kit (Pharmacia-Amersham, N.J.) according to the instructions of the manufacturer.
In order to assess whether the compounds useful according to the invention might act through inhibition phosphodiesterase III, each was tested for its effect on PGE1-induced cAMP increase. Determination of platelet cAMP levels was performed as described by Liao et al., 1998, supra. Aliquots of PRP were exposed to increasing concentrations of the indicated compounds for 20 min. PRP was then challenged with 1 μM PGE1 for 2 min. The reaction was stopped with the addition of 10 mM EDTA followed immediately by boiling for 2 min. The mixture was then cooled to 4° C. and the precipitated protein was pelleted. Cyclic AMP content in the supernatant was then quantified using an enzyme immunoassay kit (Pharmacia-Amersham, N.J.) according to the instructions of the manufacturer.

Test [2] deals with platelets. Briefly: Platelet aggregation (aggregometer). It counts as cell-based, human. The following applies: for IC50: Homo sapiens, Platelet. On the procedure:
Platelet aggregation profiling is a standard methodology, generally performed with an instrument adapted for that express purpose, for example, a Platelet Aggregation Profiler (BioData, Horsham, Pa.). The assays can generally be performed according to the instructions of the manufacturer. As exemplary conditions, 400 μl of PRP are incubated with inhibitor for 15 minutes at room temperature. The sample is then incubated for 3 minutes at 37° C. in the Platelet Aggregation Profiler. The instrument is calibrated with platelet poor plasma serving as a blank. A baseline tracing is established by monitoring the light transmittance of PRP being stirred at 1200 rpm. Aggregation is initiated by the addition of SFLLR (200 μM) and the percent of platelet aggregation is measured by the change in light transmittance for 6 minutes following addition of SFLLR.

The test system of test [3] is platelets. The experiment in a line: F-actin assembly (FITC-phalloidin, flow cytometry). It counts as cell-based, human. The following applies: agonist SFLLR. The source says: To determine whether or not the effects of the pyridazinone compound were limited to inhibition of alpha-granule secretion, the ability of the compound to inhibit F-actin assembly and αIIbβ3 activation was examined. F-actin assembly was detected using FITC-phalloidin and quantified by flow cytometry (Winokur et al., 1995, Blood 85, 1796-804; Oda et al., 1992, Blood 79, 920-7).
(In general: Flow cytometry measures light scatter and fluorescence of single cells or particles in a stream.)

Test [4] deals with platelet GPIIbIIIa. Briefly: SFLLR-induced GPIIbIIIa activation (PAC-1 antibody, flow cytometry). It is filed as cell-based, human. The settings on record: PAC-1 antibodies. As to the method: In order to assay platelet activation by cell surface marker expression, fresh PRP is isolated from donors who have not ingested aspirin for two weeks prior to donation. PRP (40 μl) is incubated with known or suspected inhibitor in DMSO or DMSO alone for 15 min. The sample is then incubated with the indicated agonist (e.g., SFLLR) for 10 min. Following incubation of the sample with the indicated agonist, 10 μl of reaction mixture is transferred to 5 μl of phycoerythrin (PE)-conjugated AC 1.2 anti-P-selectin antibody (for assessment of P-selectin surface expression) or fluorescein isothiocyanate (FITC)-conjugated PAC-1 antibody (for assessment of GPIIbIIIa activation). PBS (500 μl) is added to the sample after a 20 min incubation and the platelets are analyzed immediately by flow cytometry. Flow cytometry can be performed using, for example, a Becton-Dickinson FACSCalibur flow cytometer or its equivalent. Fluorescent channels are set at logarithmic gain. Ten thousand particles are acquired for each sample. A 530/30 band pass filter is used for FL-1 fluorescence. A 585/42 band pass filter is used for FL-2 fluorescence. FITC is measured in the FL-1 channel and PE is measured in the FL-2 channel. Data are analyzed using, for example, CellQuest software on a Macintosh PowerPC, or their equivalents.
Compounds were also tested by flow cytometry for the inhibition of SFLLR-induced GPIIbIIIa activation and P-selectin expression. In these experiments, freshly obtained PRP was prepared from healthy volunteers who had not ingested aspirin for two weeks prior to donation. Forty μl of PRP was incubated with inhibitor in DMSO or DMSO alone for 15 min. The sample was then incubated with the indicated agonist for 10 min. Following incubation of the sample with the indicated agonist, 10 μl of reaction mixture was transferred to 5 μl of PE-conjugated AC1.2 anti-P-selectin antibody (for assessment of P-selectin surface expression) or FITC-conjugated PAC-1 antibody (for assessment of GPIIbIIIa activation). PBS (500 μl) was added to the sample after a 20 min incubation and the platelets were analyzed immediately by flow cytometry. Flow cytometry was performed using a Becton-Dickinson FACSCalibur flow cytometer. Fluorescent channels were set at logarithmic gain. Ten thousand particles were acquired for each sample. A 530/30 band pass filter was used for FL-1 fluorescence. A 585/42 band pass filter was used for FL-2 fluorescence. FITC was measured in the FL-1 channel and PE was measured in the FL-2 channel. Data were analyzed using CellQuest software on a MacIntosh PowerPC.

Test [5] relates to platelet protein palmitoylation. The experiment in a line: Incorporation of [3H]-palmitate into platelet proteins. It counts as cell-based. The following applies: 100 μM compound; 20 μM or 200 μM SFLLRN. On the procedure: Platelets were labeled with [^3H]-palmitate for 2 hours in the absence (lanes 1, 2, and 3) or presence (lanes 4, 5, and 6) of 100 μM JF081204{5C} for 2 hours. Labeled platelets were then incubated with 0 μM ([…]), 20 μM (lanes 2 and 5), or 200 μM SFLLRN (lanes 3 and 6). Platelet samples were lysed, separated by SDS-PAGE, Western blotted, and visualized with a tritium imager screen (Panel a). The activation of platelets by SFLLRN led to an increase incorporation of [^3H]-palmitate into platelet proteins, whereas the presence of JF081204{5C} inhibited this activation-dependent [^3H]-palmitate incorporation (Panel b). Western blot membrane from panel (a) was stained with Ponceau S to visualize proteins in the platelet lysates.
The incorporation of [^3H]-palmitate into platelet intracellular proteins was examined to determine the effect of JF081204{5C} on platelet protein palmitoylation. […] Exposure of platelets to either 20 μM or 200 μM SFLLRN increased the intensity of the labeling. Incubation of platelets with 100 μM of JF081204{5C} inhibited the increase in [^3H]-palmitate incorporation induced by either 20 μM or 200 μM SFLLRN.

`CC1CC(=O)NN=C1c1ccc(N)c([N+](=O)[O-])c1` (stereo not drawn) [6-(4-Amino-3-nitro-phenyl)-5-methyl-4,5-dihydro-2H-pyridazin-3-one]: the “Effect on PGE1-stimulated cAMP levels in platelets” value in test [1] was “augments”; in test [1] (listed as Pyridazinone compound) it was “augment”. Moreover, in test [2] (agonist SFLLR), the SFLLR-induced platelet aggregation result is on record as “potent inhibitor”. In test [3], the “SFLLR-induced F-actin assembly / cytoskeleton rearrangement” value is “interferes”. The “SFLLR-induced αIIbβ3 activation” value in test [4] was “inhibited”.

The IC50 is the concentration that inhibits the measured activity by half. Consider `CCCCCn1c2c(c(=N)c3ccccc31)CCC2` [JF081204{5C}], for which the IC50 in test [2] (agonist U-46619, read-out: IC50 Platelet Aggregation Induced by U-46619) was 400 µM; in test [2] (agonist Collagen, read-out: IC50 Platelet Aggregation Induced by Collagen), more than 200 µM; in test [2] (agonist Epinephrine, read-out: IC50 Platelet Aggregation Induced by Epinephrine), 5 µM; in test [2] (agonist SFLLRN, read-out: IC50 Platelet Aggregation Induced by SFLLRN), 2 µM; in test [2] (agonists SFLLRN, epinephrine, read-out: IC50 SFLLRN- and epinephrine-induced platelet aggregation), less than 5 µM. For the same compound, in test [2] (agonists U46619, collagen), the “Inhibition of U46619- and collagen-induced platelet aggregation” value is given as “not effective”. Also, the “Increase in [3H]-palmitate incorporation induced by SFLLRN” value in test [5] was “inhibited”.
